US11531207B2, “Devices, apparatus and method for providing photostimulation and imaging of structures” (The Trustees of Columbia University in the City of New York, priority 2008, dated 2022)

Test system: glia
Experiment: dual labeling of cortical slices with mag-Indo-1AM and sulforhodamine (neurons vs glia)
Type: cell-based, mice
Details: 145/2555; n=4 slices; neocortical slices
Method: FIGS. 9(a)-9(d) are exemplary images mag-Indo-1-AM loads mostly neurons in which slices are simultaneously loaded with mag-Indo1-AM and Sulforhodamine 101 (e.g., SR101, 20 μM) and imaged at their respective exemplary wavelengths;
(See A. Nimmerjahn, F. Kirchhoff, J. N. Kerr et al., Nat Methods 1 (1), 31 (2004)). For example, 5.7±1.56% (145/2555; n=4 slices) of mag-Indo-1AM loaded cells can also be loaded with sulforhodamine, and only 8.1 t 2.59% (145/1786, n=4 slices) of sulforhodamine-loaded cells can also be loaded with mag-Indo-1AM.
Coronal neocortical slices can be prepared from, e.g., P12-15 C57/BL6 mice or somatostatin-GFP mice (see A. A. Oliva, Jr., M. Jiang, T. Lam et al., J Neurosci 20 (9), 3354 (2000)) (e.g., Jackson Laboratory, Bar Harbor, Me.) with a vibratome (e.g., VT1000S; Leica, Nussloch, Germany). 300 μm thick slices can be cut in ice-cold oxygenated modified ACSF that can include 1 mM CaCl2 and 3 mM MgSO4, in which NaCl can be replaced by an equimolar concentration of sucrose (in mM): 27 NaHCO3, 1.5 NaH2PO4, 222 Sucrose, 2.6 KCl. Slices can then be placed in oxygenated standard ACSF at 37° C. for 30 min. For AM-loading, slices can be deposited onto the bottom of a small Petri dish (35×10 mm) filled with 2 ml of ACSF, ventilated with 95% O2/5% CO2 and placed in a slide warmer at 37° C. (Fisher Scientific, Waltham Mass.). […]

mag-Indo-1AM
mag-Indo-1AM loaded cells also loaded with sulforhodamine: 5.7±1.56%
